Experimental data reported in patent US10406125B2, “Combination comprising an aminothiolester compound or a pharmaceutically acceptable salt thereof and a compound able to increase the H2O2 level in cancer cells of a subject” (ADVANCED BIODESIGN, priority 2015, dated 2019).
Where two headings read alike, the source gives them in different places.

Tests used:
[1] = system: Colo357; experiment: Viability of Colo357 cells under combination treatment (FIG. 8B); format: cell-based; settings: Colo357 (high GSH), combination treatment with S-methyl 4-(dimethylamino)-4-methylpent-2-ynethioate
[2] = system: H2O2 level in Colo357 cell line; experiment: Measurement of H2O2 level in Colo357 cell line (FIG. 8A); format: cell-based; settings: CPPD 20 μmol·L−1, Doxo 25 μmol·L−1
Procedure: Intracellular H2O2 production in live cells was measured using Total ROS/superoxide detection kit (Enzo life science), following the manufacturer's instructions. The assay uses specific H2O2/RNS probes that upon reaction with H2O2 and RNS species are oxidized rapidly to highly fluorescent compounds. Fluorescence intensity is proportional to the total H2O2/RNS levels within the sample. […] The day before the analysis, cells were seeded in 96-well black/clear bottom plates at a density of 2×10^4 in culture media according to cell suppliers instructions, supplemented with FBS (10% v/v), 10 units of penicillin/ml and 100 mg of streptomycin. Cells were kept at 37° C. in a humid atmosphere of 95% air: 5% CO2 overnight. […] After the incubation period, wells were loaded with 100 μL of H2O2 Detection Solution, containing the respective treatment agent or controls and incubated for 60 min at 37° C. in the dark. Several wells were left without cells for the background fluorescence control measurements. Plates were read using Appliskan fluorescence microplate reader (Thermo Scientific) (ex=560 nm, Em=600). Data are expressed as the change in arbitrary fluorescence units produced from equal amount of cells and normalized to total protein input.

[3] = system: HL-60, NT2/D1; experiment: Quantification of MDA and HNE adducts by ELISA in sensitive cells; format: cell-based, human; settings: 5 or 10 μmol·L^−1, 24 hours
Procedure: (§1) Quantitative Determination of FINE-Protein and MDA/Protein Adducts by ELISA
(§2) The formation of HNE-adducts and MDA-adducts was quantified with the Oxiselect HNE Adduct Elisa kit (Cell Biolabs, San Diego, Calif.) and the OxiSelect MDA Adduct ELISA Kit (Cell Biolabs), respectively. Briefly, after a treatment with S-methyl 4-(dimethylamino)-4-methylpent-2-ynethioate during 24 hours, cells were lysed by sonication in reducing SDS Sample Buffer. Homogenates were diluted to 10 μg protein/mL and adsorbed in 96-well protein binding plates by incubation at 37° C. for at least 2 hours. Wells were washed twice with PBS and incubated for an additional 2 hours at room temperature on an orbital shaker. Following three washes in PBS, 100 μL of anti-HNE antibody or anti-MDA antibody were added to the wells and incubated for 1 hour at room temperature. Subsequently, goat anti-rabbit secondary antibody-HRP conjugate (diluted 1/1000 with the assay diluent) was added and incubation continued for 1 hour. Wells were washed five times in PBS and HRP-substrate was added. Reaction was stopped with an acidic solution, and absorbance read on a microplate reader at 450 nm. The level of HNE-adducts and of MDA-adducts was determined by comparison with a standard curve prepared from HNE-BSA and MDA-BSA standards supplied by the manufacturer.

[4] = system: Hop62; experiment: Cell viability assay (Rezasurin), 96 well format; format: cell-based; settings: Homo sapiens, HOP-62, 48 h, DIMATE alone or with PCN 40 μM, read-out: abs.IC50
[5] = system: MSC; experiment: Quantification of MDA and HNE adducts by ELISA in resistant cells; format: cell-based; settings: 5 or 10 μmol·L^−1, 24 hours
Procedure: as §1, §2

[6] = system: THP-1; experiment: Cell viability assay (Rezasurin), 96 well format; format: cell-based; settings: Homo sapiens, 48 h
[7] = system: HCC827; experiment: Cell viability assay (Rezasurin), 96 well format; format: cell-based; settings: Homo sapiens, 48 h, DIMATE alone or with PCN 40 μM, read-out: abs.IC50
[8] = cited from earlier work
[9] = system: H2O2 levels; experiment: Measurement of H2O2 production after cell exposure to pyocianin; format: cell-based, human; settings: pyocianin 40 μM
Procedure: Measurement of H2O2 Production
Intracellular H2O2 production in live cells was measured using Total ROS/superoxide detection kit (Enzo life science), following the manufacturer's instructions. The assay uses specific H2O2/RNS probes that upon reaction with H2O2 and RNS species are oxidized rapidly to highly fluorescent compounds. Fluorescence intensity is proportional to the total H2O2/RNS levels within the sample. […] The day before the analysis, cells were seeded in 96-well black/clear bottom plates at a density of 2×10^4 in culture media according to cell suppliers instructions, supplemented with FBS (10% v/v), 10 units of penicillin/ml and 100 […]. Cells were kept at 37° C. in a humid atmosphere of 95% air: 5% CO2 overnight. On the day of the analysis, cells media was replaced by 100 μL of phenol free-media supplemented as above, without any treatment, with S-methyl 4-(dimethylamino)-4-methylpent-2-ynethioate for 6 hours, vehicle HEPES for 6 hours, or with the different control agents PCN and NAC for 20 min. […] Several wells were left without cells for the background fluorescence control measurements. Plates were read using Appliskan fluorescence microplate reader (Thermo Scientific) (ex=560 nm, Em=600). Data are expressed as the change in arbitrary fluorescence units produced from equal amount of cells and normalized to total protein input.

[10] = system: cancer cells; experiment: Cell viability after exposure to pyocianin; format: cell-based, human; settings: pyocianin 40 μM
Procedure: Cells were seeded into 96-well cell culture plates at concentrations required to ensure approximately 80% confluence in control (untreated cells) at the end of experiment (0.5×10^4-5×10^4 cell/well). The sensitivity towards S-methyl 4-(dimethylamino)-4-methylpent-2-ynethioate was determined using different concentrations of the drug (from 0.01 to 100 μM). After 48 hours, the growth-inhibitory effect of the drug was analyzed using Rezasurin, according to manufactures instruction. To ensure good data quality and to minimize impact of pipetting errors, each particular drug concentration was assessed based on mean fluorescence intensity from 8 separate wells. The drug response was quantified by the half maximal inhibitory concentration (IC50) for each particular cell line, and determined by non-linear regression analysis of log-dose/response curves. Cut-off value for resistance to S-methyl 4-(dimethylamino)-4-methylpent-2-ynethioate was determined statistically (>2 S.D. above the IC50 geometric mean). The in-vitro threshold value for hypersensitivity to the drug has been defined as <IC50 geometric mean.
In a different experiment, cells showing resistance to S-methyl 4-(dimethylamino)-4-methylpent-2-ynethioate (THP-1, HCC827, and Hop62) were challenged with H2O2 inducer. […]

With `N.N.[Cl][Pt][Cl]` [CPPD, Cisplatin] the effect on viability [1] was “no effect” and the “increase of H2O2 level” value [2] was 200%.

With `CSC(=O)C#CC(C)(C)N(C)C` [DIMATE, S-methyl 4-(dimethylamino)-4-methylpent-2-ynethioate] the HNE-adducts level [3] was > 1 μg per μg of total protein, the MDA-adducts level [3] was “above 100 ng per μg of total protein” and the IC50 [4] was 39 µM. For the same compound, the HNE-adducts level [5] was < 1 μg per μg of total protein, the MDA-adducts level [5] was < 100 ng per μg of total protein and the IC50 ([6]; THP-1, DIMATE alone or with PCN 40 μM, read-out: abs.IC50) was 46 µM. The IC50 ([6]; THP-1 resistant cells, DIMATE alone or with H2O2 inducer at fixed concentration (2-ME 100 μM, ATO 1 μM, Daunorubicine 40 nM, Doxorubicine 20 nM, Etoposide 500 nM, Mitoxanthrone 50 nM, Parthenolide 100 nM, Piperlongumine 2 μM), read-out: IC50) was 46 µM and the IC50 [7] was 25 µM.

For `COc1cccc2c1C(=O)c1c(O)c3c(c(O)c1C2=O)C[C@@](O)(C(=O)CO)C[C@@H]3O[C@H]1C[C@H](N)[C@H](O)[C@H](C)O1` [Doxo, Doxorubicin], the effect on viability [1] was “no effect” and the “increase of H2O2 level” value [2] was 10 000%.

In the case of `CC(=O)N[C@@H](CS)C(=O)O` [NAC, N-acetyl-L-cysteine], the “rate constant, scavenging of hydroxy radicals” value ([8]; hydroxy radicals) is given as 1.36×10^10 M^−1,s^−1 and the “reaction with superoxide anion” value ([8]; superoxide anion) is given as “no reaction”.

For `Cn1c2cccc(=O)c-2nc2ccccc21` [pyocianin, pyocyanin], the “increase in H2O2 levels” value [9] was “two-fold increase” and the “effect on cell viability” value [10] was “without affecting cell viability”.
